Reference: the supplement of paper PMC11208160

experiment: recombinant UMI read abundance after kanamycin selection (control-corrected) (log10(CPM+1)); higher = more efficient recombination; extreme values may be limits of the assay; sequences stand for … in AGTGCAGAGAAAATCGGCCAGTTTTCTCTGCCTGCAGTCCGCATGCCGTGGGACCCCTTGGGTTCTAACCTGTTGCCTAGATTTATGCAGCGGACTGCCTTTCTCCCAAAGTGATAAACCGG…AGGTTGGTTTCACT; site = the 11-nt donor
Outline: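 In Escherichia coli, a pool of donor and donor-binding-loop pairs, each with a 12-nt UMI, was tested for the IS621 bridge recombinase. Plating was on IPTG (0.07 mM) plus kanamycin, or without selection, in two replicates. Recombinant UMIs were amplified by PCR across the donor–target junction and sequenced, and counts were reported as log10(CPM+1) after averaging and control-derived scaling.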
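Further: IS621 bridge recombinase in Escherichia coli cells against a fixed T5 target plasmid.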

Sequence | recombinant UMI read abundance (log10)
CGTGAAACATGGACCGGTTTTCCCGGTAATCCGTATTTGTT (site CGTGAAACTAA) | 1.61
CGTGAAACATGGACCGGTTTTCCCGGTAATCCGTATTTGTT (site CGTGCAACTAA) | 0
CGTGAAACATGGACCGGTTTTCCCGGTAATCCGTATTTGTT (site CGTGGAACTAA) | 0
CGTGAAACATGGACCGGTTTTCCCGGTAATCCGTATTTGTT (site CGTGTAACTAA) | 0.0209
CGTGAGGCATGGACCGGTTTTCCCGGTAATCCGTATTTGCC (site CGTGAGGCTGG) | 0.525
CGTGCCCCATGGACCGGTTTTCCCGGTAATCCGTATTTGGC (site CGTGCCCCTGC) | 0
CGTGGAACATGGACCGGTTTTCCCGGTAATCCGTATTTGCG (site CGTGGAACTCG) | 2.05
CGTGGAGCATGGACCGGTTTTCCCGGTAATCCGTATTTGTT (site CGTGGAACTAA) | 1.66
CGTGGAGCATGGACCGGTTTTCCCGGTAATCCGTATTTGTT (site CGTGGACCTAA) | 0.00893
CGTGGAGCATGGACCGGTTTTCCCGGTAATCCGTATTTGTT (site CGTGGAGCTAA) | 2.02
CGTGGAGCATGGACCGGTTTTCCCGGTAATCCGTATTTGTT (site CGTGGATCTAA) | 1.23
CGTGGATCATGGACCGGTTTTCCCGGTAATCCGTATTTGTT (site CGTGGAACTAA) | 0.0027
CGTGGATCATGGACCGGTTTTCCCGGTAATCCGTATTTGTT (site CGTGGACCTAA) | 0.0255
CGTGGATCATGGACCGGTTTTCCCGGTAATCCGTATTTGTT (site CGTGGAGCTAA) | 0
CGTGGATCATGGACCGGTTTTCCCGGTAATCCGTATTTGTT (site CGTGGATCTAA) | 2.34
CGTGGTACATGGACCGGTTTTCCCGGTAATCCGTATTTGTT (site CGTGGAACTAA) | 0.177
CGTGGTACATGGACCGGTTTTCCCGGTAATCCGTATTTGTT (site CGTGGCACTAA) | 0.0912
CGTGGTACATGGACCGGTTTTCCCGGTAATCCGTATTTGTT (site CGTGGGACTAA) | 0
CGTGGTACATGGACCGGTTTTCCCGGTAATCCGTATTTGTT (site CGTGGTACTAA) | 1.25

Sequence | recombinant UMI read abundance (log10)
CGTGTGGCATGGACCGGTTTTCCCGGTAATCCGTATTTGCT (site CGTATGGCTAG) | 1.01
CGTGTGGCATGGACCGGTTTTCCCGGTAATCCGTATTTGCT (site CGTCTGGCTAG) | 0.00526
CGTGTGGCATGGACCGGTTTTCCCGGTAATCCGTATTTGCT (site CGTGTGGCTAG) | 3.26
CGTGTGGCATGGACCGGTTTTCCCGGTAATCCGTATTTGCT (site CGTTTGGCTAG) | 0
CGTGTTGCATGGACCGGTTTTCCCGGTAATCCGTATTTGTC (site CGTGTTGCTGA) | 2.08
CGTTAGGCATGGACCGGTTTTCCCGGTAATCCGTATTTGAG (site CGTTAGACTCT) | 0.855
CGTTAGGCATGGACCGGTTTTCCCGGTAATCCGTATTTGAG (site CGTTAGCCTCT) | 0.00789
CGTTAGGCATGGACCGGTTTTCCCGGTAATCCGTATTTGAG (site CGTTAGGCTCT) | 1.23
CGTTAGGCATGGACCGGTTTTCCCGGTAATCCGTATTTGAG (site CGTTAGTCTCT) | 0.173
CGTTATCCATGGACCGGTTTTCCCGGTAATCCGTATTTGTT (site CGGAATCCTAA) | 0
CGTTATCCATGGACCGGTTTTCCCGGTAATCCGTATTTGTT (site CGTTATCCTAA) | 0.375
CGTTCATCATGGACCGGTTTTCCCGGTAATCCGTATTTGCT (site CGATCATCTAG) | 0
CGTTCATCATGGACCGGTTTTCCCGGTAATCCGTATTTGCT (site CGCTCATCTAG) | 1.41
CGTTCATCATGGACCGGTTTTCCCGGTAATCCGTATTTGCT (site CGGTCATCTAG) | 0
CGTTCATCATGGACCGGTTTTCCCGGTAATCCGTATTTGCT (site CGTTCATCTAG) | 1.35
CGTTCCCCATGGACCGGTTTTCCCGGTAATCCGTATTTGTA (site AGTTCCCCTTA) | 0.00297
CGTTCCCCATGGACCGGTTTTCCCGGTAATCCGTATTTGTA (site CGTTCCCCTTA) | 0.531
CGTTCCCCATGGACCGGTTTTCCCGGTAATCCGTATTTGTA (site GGTTCCCCTTA) | 0.00349
CGTTCCCCATGGACCGGTTTTCCCGGTAATCCGTATTTGTA (site TGTTCCCCTTA) | 0.00473

Sequence | recombinant UMI read abundance (log10)
CGTTCGGCATGGACCGGTTTTCCCGGTAATCCGTATTTGCT (site CGTTAGGCTAG) | 0.00568
CGTTCGGCATGGACCGGTTTTCCCGGTAATCCGTATTTGCT (site CGTTCGGCTAG) | 1.63
CGTTCGGCATGGACCGGTTTTCCCGGTAATCCGTATTTGCT (site CGTTGGGCTAG) | 0.00466
CGTTCGGCATGGACCGGTTTTCCCGGTAATCCGTATTTGCT (site CGTTTGGCTAG) | 0
CGTTGCTCATGGACCGGTTTTCCCGGTAATCCGTATTTGAT (site CGTTGCTCTAT) | 1.8
CGTTGTACATGGACCGGTTTTCCCGGTAATCCGTATTTGCT (site CGTTGTACTAG) | 1.39
CGTTTCGCATGGACCGGTTTTCCCGGTAATCCGTATTTGCT (site CGTTTAGCTAG) | 0
CGTTTCGCATGGACCGGTTTTCCCGGTAATCCGTATTTGCT (site CGTTTCGCTAG) | 0.892
CGTTTCGCATGGACCGGTTTTCCCGGTAATCCGTATTTGCT (site CGTTTGGCTAG) | 0
CGTTTCGCATGGACCGGTTTTCCCGGTAATCCGTATTTGCT (site CGTTTTGCTAG) | 0
CGTTTGACATGGACCGGTTTTCCCGGTAATCCGTATTTGAG (site CGTTAGACTCT) | 0.00643
CGTTTGACATGGACCGGTTTTCCCGGTAATCCGTATTTGAG (site CGTTCGACTCT) | 0
CGTTTGACATGGACCGGTTTTCCCGGTAATCCGTATTTGAG (site CGTTGGACTCT) | 0.0522
CGTTTGACATGGACCGGTTTTCCCGGTAATCCGTATTTGAG (site CGTTTGACTCT) | 1.03
CGTTTGGCATGGACCGGTTTTCCCGGTAATCCGTATTTGCA (site CGTTTGGCTAG) | 0
CGTTTGGCATGGACCGGTTTTCCCGGTAATCCGTATTTGCA (site CGTTTGGCTCG) | 0.024
CGTTTGGCATGGACCGGTTTTCCCGGTAATCCGTATTTGCA (site CGTTTGGCTGG) | 0
CGTTTGGCATGGACCGGTTTTCCCGGTAATCCGTATTTGCA (site CGTTTGGCTTG) | 0.562
CTAACAGCATGGACCGGTTTTCCCGGTAATCCGTATTTGTA (site CTAACAGCTTA) | 2.48
